Measurements: US11932626B2, “2-pyrimidone analogs as potent antiviral agents against Alphaviruses” (priority 2020, dated 2024)

What was measured:
CHIKV = CHIKV virus titer reduction (VTR) assay in NHDF cells; type: cell-based; settings: Chikungunya virus; for log reduction at 10 µM: CHIKV titer reduction at 10 μM, normal human dermal fibroblasts (NHDF) cells; for EC90: effective concentration of 90% inhibition of virus in a VTR assay, NHDF cells
in vitro = settings: human
[1] = test system: Chikungunya virus (CHIKV) strain SL15649; experiment: CHIKV-infected mice, 5 days oral treatment: tissue viral loads
VEEV (TC-83) = experiment: microbe, parasite or virus in culture; type: cell-based; settings: Venezuelan equine encephalitis virus, read-out: VEEV EC50
[2] = test system: CHIKV linked NanoLuc luciferase reporter; experiment: microbe, parasite or virus in culture; type: cell-based; settings: Chikungunya virus, read-out: CHIKV EC50
[3] = test system: Chikungunya virus (CHIKV) strain SL15649; experiment: CHIKV-infected mice, 10 days oral treatment: footpad swelling and viremia
VEEV = experiment: microbe, parasite or virus in culture; type: cell-based; settings: Venezuelan equine encephalitis virus, NHDF; for EC90: read-out: VEEV EC90; for log reduction at 10 µM: read-out: VEEV VTR

O=C(COc1cc[nH]c(=O)n1)NC12CC3CC(CC(C3)C1)C2 [Compound No. 7, N-(Adamantan-1-Yl)-2-((2-Oxo-1,2-Dihydropyrimidin-4-Yl)Oxy)Acetamide]
log reduction at 10 µM (CHIKV): 3.68
EC90 (CHIKV): 0.7 µM
CC50 (in vitro): > 40 µM
Adverse toxicity ([1]; mice treated three times per day for 5 days per os): No adverse toxicity was observed
Infectious viral loads in Ipsilateral ankle ([1]; mice, 40 mg/kg 3× daily p.o., 5 dpi, p<0.0001): reduced infectious viral loads
Infectious viral loads in Contralateral ankle ([1]; mice, 40 mg/kg 3× daily p.o., 5 dpi, p=0.0009): reduced infectious viral loads
EC50 (VEEV (TC-83)): 38.8 µM
EC50 [2]: 3.2 µM
Adverse toxicity ([3]; mice treated three times per day for 10 days per os): No adverse toxicity was observed
Footpad swelling in the ipsilateral foot ([3]; mice, 40 mg/kg 3× daily p.o., days 3-8, compared to vehicle treated mice): reduced swelling in the ipsilateral foot at days 3, 4, 5, 6, 7, and 8
Viral loads in serum ([3]; mice, 40 mg/kg 3× daily p.o., serum at 3 days post infection, p=0.0003): did not have detectable viral loads in serum samples
Tissue distribution ([3]; mice, per os three times per day): distributed to a number of tissue types including joints and muscles
EC90 (VEEV): 1.1 µM
log reduction at 10 µM (VEEV): 1.79

CC(C)Oc1cc(OCC(=O)NC23CC4CC(CC(C4)C2)C3)nc(=O)[nH]1 [compound 45, N-(Adamantan-1-Yl)-2-((6-Isopropoxy-2-Oxo-1,2-Dihydropyrimidin-4-Yl)Oxy)Acetamide]
log reduction at 10 µM (CHIKV): 5.58
EC90 (CHIKV): 0.08 µM
CC50 (in vitro): > 40 µM
EC50 (VEEV (TC-83)): 8.95 µM
EC50 [2]: 0.429 µM
EC90 (VEEV): 0.98 µM
log reduction at 10 µM (VEEV): 2.62

COc1[nH]c(=O)nc(OCC(=O)NC23CC4CC(CC(C4)C2)C3)c1F [compound 46, N-(adamantan-1-yl)-2-((5-fluoro-6-methoxy-2-oxo-1,2-dihydropyrimidin-4-yl)oxy)acetamide]
log reduction at 10 µM (CHIKV): 0.42
EC90 (CHIKV): > 10 µM
CC50 (in vitro): > 40 µM
EC50 (VEEV (TC-83)): > 40 µM
EC50 [2]: > 40 µM
EC90 (VEEV): > 10 µM
log reduction at 10 µM (VEEV): 0

O=C(COc1cc(OC2CC(F)(F)C2)[nH]c(=O)n1)NC12CC3CC(CC(C3)C1)C2 [compound 47, N-(Adamantan-1-Yl)-2-((6-(3,3-Difluorocyclobutoxy)-2-Oxo-1,2-Dihydropyrimidin-4-Yl)Oxy)Acetamide]
log reduction at 10 µM (CHIKV): 5.66
EC90 (CHIKV): 0.8 µM
CC50 (in vitro): > 40 µM
EC50 (VEEV (TC-83)): > 40 µM
EC50 [2]: 6.78 µM
EC90 (VEEV): > 10 µM
log reduction at 10 µM (VEEV): 0.28

O=C(COc1cc(OC2CC2)[nH]c(=O)n1)NC12CC3CC(CC(C3)C1)C2 [compound 48, N-(Adamantan-1-Yl)-2-((6-Cyclopropoxy-2-Oxo-1,2-Dihydropyrimidin-4-Yl)Oxy)Acetamide]
log reduction at 10 µM (CHIKV): 5.51
EC90 (CHIKV): 0.06 µM
CC50 (in vitro): > 40 µM
EC50 (VEEV (TC-83)): 3.77 µM
EC50 [2]: 0.283 µM
EC90 (VEEV): 0.65 µM
log reduction at 10 µM (VEEV): 3.28

COCCOc1cc(OCC(=O)NC23CC4CC(CC(C4)C2)C3)nc(=O)[nH]1 [compound 49, N-(Adamantan-1-Yl)-2-((6-(2-Methoxyethoxy)-2-Oxo-1,2-Dihydropyrimidin-4-Yl)Oxy)Acetamide]
log reduction at 10 µM (CHIKV): 3.73
EC90 (CHIKV): 1.3 µM
CC50 (in vitro): > 40 µM
EC50 (VEEV (TC-83)): 38.6 µM
EC50 [2]: 3.08 µM
EC90 (VEEV): > 10 µM
log reduction at 10 µM (VEEV): 0

O=C(COc1nc(=O)[nH]c(OCCO)c1F)NC12CC3CC(CC(C3)C1)C2 [compound 50, N-(adamantan-1-yl)-2-((5-fluoro-6-(2-hydroxyethoxy)-2-oxo-1,2-dihydropyrimidin-4-yl)oxy)acetamide]
log reduction at 10 µM (CHIKV): 0
EC90 (CHIKV): > 10 µM
CC50 (in vitro): > 40 µM
EC50 (VEEV (TC-83)): > 40 µM
EC50 [2]: 25.4 µM
EC90 (VEEV): > 10 µM
log reduction at 10 µM (VEEV): 0.5

CC(C)(C)COc1cc(OCC(=O)NC23CC4CC(CC(C4)C2)C3)nc(=O)[nH]1 [compound 51, N-(Adamantan-1-Yl)-2-((6-(Neopentyloxy)-2-Oxo-1,2-Dihydropyrimidin-4-Yl)Oxy)Acetamide]
log reduction at 10 µM (CHIKV): 3.77
EC90 (CHIKV): 0.75 µM
CC50 (in vitro): > 40 µM
EC50 (VEEV (TC-83)): > 40 µM
EC50 [2]: 7.43 µM
EC90 (VEEV): 0.1 µM
log reduction at 10 µM (VEEV): 3.85

CC(C)(C#N)COc1cc(OCC(=O)NC23CC4CC(CC(C4)C2)C3)nc(=O)[nH]1 [compound 52, N-(Adamantan-1-Yl)-2-((6-(2-Cyano-2-Methylpropoxy)-2-Oxo-1,2-Dihydropyrimidin-4-Yl)Oxy)Acetamide]
log reduction at 10 µM (CHIKV): 2.42
EC90 (CHIKV): 2.5 µM
CC50 (in vitro): > 40 µM
EC50 (VEEV (TC-83)): > 40 µM
EC50 [2]: 13.7 µM
EC90 (VEEV): 2.5 µM
log reduction at 10 µM (VEEV): 2.5

CCOc1cc(OCC(=O)NC23CC4CC(CC(C4)C2)C3)nc(=O)[nH]1 [compound 55, N-(Adamantan-1-Yl)-2-((6-Ethoxy-2-Oxo-1,2-Dihydropyrimidin-4-Yl)Oxy)Acetamide]
log reduction at 10 µM (CHIKV): 4
EC90 (CHIKV): 0.14 µM
CC50 (in vitro): > 40 µM
EC50 (VEEV (TC-83)): 2.78 µM
EC50 [2]: 0.179 µM
EC90 (VEEV): > 10 µM
log reduction at 10 µM (VEEV): 0.05

CCC(C)Oc1cc(OCC(=O)NC23CC4CC(CC(C4)C2)C3)nc(=O)[nH]1 (stereo not drawn) [compound 56, N-(adamantan-1-yl)-2-((6-(sec-butoxy)-2-oxo-1,2-dihydropyrimidin-4-yl)oxy)acetamide]
log reduction at 10 µM (CHIKV): 6.6
EC90 (CHIKV): 0.17 µM
CC50 (in vitro): > 40 µM
EC50 (VEEV (TC-83)): 16.2 µM
EC50 [2]: 0.701 µM
EC90 (VEEV): > 10 µM
log reduction at 10 µM (VEEV): 0
